Target: T1, nAChRs (nicotinic acetylcholine receptors) in G. pulex membrane protein extract
T1 construct: gene nAChR alpha; native whole-animal crude membrane protein pellet (43,000g)
Test: equilibrium binding to membrane protein, unlabelled ligand, ultracentrifugation, online-SPE LC-HRMS/MS
Design: species or system Gammarus pulex
Details: 10 mM Tris-HCl pH 7.4, 23 °C, 2 h; one-site specific binding model; no displacement control described; read-out: best fit
Source text: equilibrium binding to membrane protein, unlabelled ligand, ultracentrifugation, online-SPE LC-HRMS/MS on nAChRs (nicotinic acetylcholine receptors) in G. pulex membrane protein extract

`N#C/N=C1\SCCN1Cc1ccc(Cl)nc1` [thiacloprid] was tested, and the Kd was 0.41 nM.

From publication PMC10286312, “Elimination Resistance: Characterizing Multi-compartment Toxicokinetics of the Neonicotinoid Thiacloprid in the Amphipod Gammarus pulex Using Bioconcentration and Receptor-Binding Assays” (Environmental Science & Technology, 2023)
